Source: patent US11028080B2, “Substituted pyrimidines as LRKK2 inhibitors” (Denali Therapeutics Inc., priority 2016, dated 2021)

Target: LRRK2 G2019S enzyme (Homo sapiens (Human), UniProt Q5S007, G2019S)
Assay: LRRK2 G2019S biochemical TR-FRET assay (LRRKtide substrate)
Details: 5 nM LRRK2, 134 μM ATP, 60 minute reaction time, 23° C.
Description: Materials: • LRRK2 G2019S enzyme • Substrate (LRRKtide) • ATP • TR-FRET dilution buffer • pLRRKtide antibody • 384-well assay plate • DMSO • Enzyme reaction conditions • 50 mM Tris pH 7.5, 10 mM MgCl2, 1 mM EGTA, 0.01% Brij-35, 2 mM DTT • 5 nM LRRK2 • 134 μM ATP • 60 minute reaction time • 23° C. reaction temperature • 10 μL total reaction volume
Detection reaction conditions • 1×TR-FRET dilution buffer • 10 mM EDTA • 2 nM antibody • 23° C. reaction temperature • 10 μL total reaction volume
Compounds were prepared by initially diluting to 1 mM with DMSO. 35 μL of reference compound solution, 35 μL of test compound solution, and 35 μL HPE were successively added to the source plate (384-well assay plate, Labcyte). The plates were centrifuged at 2500 rpm for 1 minute and sealed in foil. POD was used to perform a 3.162 fold serial dilution and 100 nL of reference compound solution, test compound solution, HPE and ZPE were transferred to assay plates. The assay plate was centrifuged at 2500 rpm for 1 minute, and sealed with foil.
To perform the enzyme reaction, 5 μL of LRRKtide substrate and kinase mixture in assay buffer was added to all wells of the assay plate. The plate was centrifuged to concentrate the mixture at the bottom of the wells. The assay plate was incubated at 23° C. for 20 minutes. Following incubation, 5 μL of 2×ATP in assay buffer was added to each well, and plates were centrifuged to concentrate the mixture at the bottom of the wells. The plate was incubated at 23° C. for 60 minutes.
To perform the detection of the reaction, EDTA completely mixed in TR-FRET dilution buffer was added to antibody reagent. 10 μL of detection reagent was added to all wells of each well of the assay plate and the plate was centrifuged to concentrate the mixture at the bottom of the wells. The plate was then incubated at 23° C. for 60 minutes. Plates were read on Perkin Elmer Envision 2104 instrument in TR-FRET mode using a 340 nm excitation filter, 520 nm fluorescence emission filter, and 490 or 495 nm terbium emission filter.
In the table below, activity is provided as follows: In the table below, activity is provided as follows: +++=IC50 less than 30 nM; ++=IC50 between 30 nM and 60 nM; +=IC50 greater than 60 nM.

Sequence of LRRK2 G2019S enzyme (Q5S007 whole entry G2019S): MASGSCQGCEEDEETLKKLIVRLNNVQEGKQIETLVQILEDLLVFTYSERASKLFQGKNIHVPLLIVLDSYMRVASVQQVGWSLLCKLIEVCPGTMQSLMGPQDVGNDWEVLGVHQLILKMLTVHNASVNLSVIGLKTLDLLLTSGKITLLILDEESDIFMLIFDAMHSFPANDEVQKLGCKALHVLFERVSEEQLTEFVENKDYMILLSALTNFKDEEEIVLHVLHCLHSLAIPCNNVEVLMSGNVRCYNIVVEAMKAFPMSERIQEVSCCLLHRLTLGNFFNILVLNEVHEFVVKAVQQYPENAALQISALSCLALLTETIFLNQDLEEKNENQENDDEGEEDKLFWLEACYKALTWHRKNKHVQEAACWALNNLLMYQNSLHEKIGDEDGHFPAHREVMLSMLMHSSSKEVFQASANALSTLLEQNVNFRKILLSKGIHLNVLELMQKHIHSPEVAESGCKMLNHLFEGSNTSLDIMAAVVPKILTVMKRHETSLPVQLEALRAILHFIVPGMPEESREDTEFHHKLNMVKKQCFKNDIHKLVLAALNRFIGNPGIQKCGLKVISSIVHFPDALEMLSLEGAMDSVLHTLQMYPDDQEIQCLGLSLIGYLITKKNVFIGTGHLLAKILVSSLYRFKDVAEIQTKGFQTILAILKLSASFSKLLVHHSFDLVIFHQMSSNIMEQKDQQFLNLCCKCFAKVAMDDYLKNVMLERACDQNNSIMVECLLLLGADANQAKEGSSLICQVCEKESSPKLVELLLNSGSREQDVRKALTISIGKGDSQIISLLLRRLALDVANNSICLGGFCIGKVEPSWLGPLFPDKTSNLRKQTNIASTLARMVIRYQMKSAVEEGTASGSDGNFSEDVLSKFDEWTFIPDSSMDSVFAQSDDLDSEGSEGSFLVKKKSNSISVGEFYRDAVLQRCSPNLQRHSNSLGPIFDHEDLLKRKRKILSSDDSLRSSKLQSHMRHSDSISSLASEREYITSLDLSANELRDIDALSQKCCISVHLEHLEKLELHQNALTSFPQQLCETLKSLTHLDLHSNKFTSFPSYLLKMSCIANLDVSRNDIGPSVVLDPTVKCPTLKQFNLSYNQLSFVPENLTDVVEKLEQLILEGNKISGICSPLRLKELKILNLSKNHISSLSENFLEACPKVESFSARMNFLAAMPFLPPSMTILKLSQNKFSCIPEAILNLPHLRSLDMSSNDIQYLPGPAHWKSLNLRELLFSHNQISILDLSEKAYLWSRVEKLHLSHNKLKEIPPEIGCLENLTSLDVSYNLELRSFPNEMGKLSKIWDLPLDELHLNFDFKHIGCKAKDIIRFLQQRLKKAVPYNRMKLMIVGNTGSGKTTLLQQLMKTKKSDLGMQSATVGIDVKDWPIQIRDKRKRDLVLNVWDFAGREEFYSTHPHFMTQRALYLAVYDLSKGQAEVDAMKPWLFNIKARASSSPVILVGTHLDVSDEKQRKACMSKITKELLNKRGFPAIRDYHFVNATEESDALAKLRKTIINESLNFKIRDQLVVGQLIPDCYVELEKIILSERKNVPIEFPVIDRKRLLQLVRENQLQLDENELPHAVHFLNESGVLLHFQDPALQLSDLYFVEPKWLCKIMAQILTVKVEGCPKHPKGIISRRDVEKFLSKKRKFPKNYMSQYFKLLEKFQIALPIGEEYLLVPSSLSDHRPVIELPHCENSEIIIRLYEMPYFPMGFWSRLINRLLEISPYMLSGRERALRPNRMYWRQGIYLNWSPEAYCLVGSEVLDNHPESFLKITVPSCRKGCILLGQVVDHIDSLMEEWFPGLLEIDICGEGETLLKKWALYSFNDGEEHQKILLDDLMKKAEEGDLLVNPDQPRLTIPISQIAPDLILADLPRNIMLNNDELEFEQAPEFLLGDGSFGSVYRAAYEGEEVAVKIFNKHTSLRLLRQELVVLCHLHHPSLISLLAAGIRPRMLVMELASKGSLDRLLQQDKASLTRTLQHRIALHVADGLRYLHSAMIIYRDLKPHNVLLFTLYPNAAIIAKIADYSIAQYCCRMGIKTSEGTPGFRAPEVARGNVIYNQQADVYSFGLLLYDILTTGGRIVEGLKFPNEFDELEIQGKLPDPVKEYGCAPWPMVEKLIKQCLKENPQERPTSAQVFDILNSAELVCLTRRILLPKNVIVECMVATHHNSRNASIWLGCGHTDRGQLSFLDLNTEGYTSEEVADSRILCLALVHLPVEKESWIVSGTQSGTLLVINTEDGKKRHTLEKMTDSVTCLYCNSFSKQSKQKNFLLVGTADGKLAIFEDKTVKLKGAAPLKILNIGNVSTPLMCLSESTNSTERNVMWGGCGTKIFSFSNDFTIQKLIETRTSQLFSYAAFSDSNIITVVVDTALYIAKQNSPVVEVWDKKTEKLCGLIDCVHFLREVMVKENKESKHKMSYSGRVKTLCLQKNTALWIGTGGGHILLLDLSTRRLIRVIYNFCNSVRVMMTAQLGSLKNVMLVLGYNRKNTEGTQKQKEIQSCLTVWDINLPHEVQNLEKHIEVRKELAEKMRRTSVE

| Structure (SMILES) | IC50 [nM] |
| --- | --- |
| [2H]C([2H])([2H])C1(c2nc(Cl)c(Nc3ncc(C(F)(F)F)c(NC)n3)s2)CCNC1=O (single isomer, unassigned) [Compound 42] | < 30 |
| [2H]C([2H])([2H])C1(c2nc(Cl)c(Nc3ncc(C(F)(F)F)c(NC)n3)s2)CCNC1=O (single isomer, unassigned) [Compound 43] | < 30 |
| [2H]C([2H])([2H])N1CCC(c2nc(Cl)c(Nc3ncc(C(F)(F)F)c(NC)n3)s2)(C([2H])([2H])[2H])C1=O (single isomer, unassigned) [Compound 44] | < 30 |
| [2H]C([2H])([2H])N1CCC(c2nc(Cl)c(Nc3ncc(C(F)(F)F)c(NC)n3)s2)(C([2H])([2H])[2H])C1=O (single isomer, unassigned) [Compound 45] | < 30 |
| [2H]C([2H])([2H])N1CCC(c2nc(Cl)c(Nc3ncc(C(F)(F)F)c(NCC)n3)s2)(C([2H])([2H])[2H])C1=O (single isomer, unassigned) [Compound 46] | < 30 |
| [2H]C([2H])([2H])N1CCC(c2nc(Cl)c(Nc3ncc(C(F)(F)F)c(NCC)n3)s2)(C([2H])([2H])[2H])C1=O (single isomer, unassigned) [Compound 47] | < 30 |
| [2H]C([2H])([2H])C1(c2nc(Cl)c(Nc3ncc(Br)c(OC)n3)s2)CCNC1=O (single isomer, unassigned) [Compound 48] | < 30 |
| [2H]C([2H])([2H])C1(c2nc(Cl)c(Nc3ncc(Br)c(OC)n3)s2)CCNC1=O (single isomer, unassigned) [Compound 49] | < 30 |
| [2H]C([2H])([2H])C1(c2nc(C3CC3)c(Nc3ncc(C(F)(F)F)c(NCC)n3)s2)CCNC1=O (single isomer, unassigned) [Compound 51] | < 30 |
| [2H]C([2H])([2H])C1(c2nc(C3CC3)c(Nc3ncc(C(F)(F)F)c(NCC)n3)s2)CCNC1=O (single isomer, unassigned) [Compound 52] | < 30 |
| [2H]C([2H])([2H])C1(c2nc(C3CC3)c(Nc3ncc(Br)c(OC)n3)s2)CCNC1=O (single isomer, unassigned) [Compound 53] | < 30 |
| [2H]C([2H])([2H])C1(c2nc(C3CC3)c(Nc3ncc(Br)c(OC)n3)s2)CCNC1=O (single isomer, unassigned) [Compound 54] | < 30 |
| [2H]C([2H])([2H])C1(c2nc(C3CC3)c(Nc3ncc(C(F)(F)F)c(NC)n3)s2)CCNC1=O (single isomer, unassigned) [Compound 59] | < 30 |
| [2H]C([2H])([2H])C1(c2nc(C3CC3)c(Nc3ncc(C(F)(F)F)c(NC)n3)s2)CCNC1=O (single isomer, unassigned) [Compound 60] | < 30 |
| Cc1nc(C(C)(C)c2nc[nH]n2)sc1Nc1ncc(C(F)(F)F)c(C2CC2)n1 [Compound 1] | < 30 |
| CNc1nc(Nc2sc(C3(C#N)CC3)nc2C)ncc1C(F)(F)F [Compound 2] | < 30 |
| Cc1nc(C2(c3nc[nH]n3)CC2)sc1Nc1ncc(C(F)(F)F)c(C2CC2)n1 [Compound 3] | < 30 |
| CCNc1nc(Nc2sc(C(=O)N3CCC(F)(F)C3)nc2C)ncc1C(F)(F)F [Compound 10] | < 30 |
| CNc1nc(Nc2cn(C)c(C#N)c2C)ncc1C(F)(F)F [Compound 14, 1,3-dimethyl-4-((4-(methylamino)-5-(trifluoromethyl)pyrimidin-2-yl)amino)-1H-pyrrole-2-carbonitrile] | < 30 |
| CCNc1nc(Nc2cn(Cc3ccn(C)n3)c(C#N)c2C)ncc1C(F)(F)F [Compound 15, 4-((4-(ethylamino)-5-(trifluoromethyl)pyrimidin-2-yl)amino)-3-methyl-1-((1-methyl-1H-pyrazol-3-yl)methyl)-1H-pyrrole-2-carbonitrile] | < 30 |
| CCNc1nc(Nc2cn(S(C)(=O)=O)c(C#N)c2C)ncc1C(F)(F)F [Compound 16, 4-((4-(ethylamino)-5-(trifluoromethyl)pyrimidin-2-yl)amino)-3-methyl-1-(methylsulfonyl)-1H-pyrrole-2-carbonitrile] | < 30 |
| CNc1nc(Nc2sc(C(C)(C)C#N)nc2C)ncc1C(F)(F)F [Compound 17, 2-methyl-2-(4-methyl-5-((4-(methylamino)-5-(trifluoromethyl)pyrimidin-2-yl)amino)thiazol-2-yl)propanenitrile] | < 30 |

| Structure (SMILES) | IC50 [nM] |
| --- | --- |
| CNc1nc(Nc2sc(C(C)(C)C(N)=O)nc2C)ncc1C(F)(F)F [Compound 22] | < 30 |
| [2H]C([2H])([2H])N1CCC(c2nc(C)c(Nc3ncc(C(F)(F)F)c(NC)n3)s2)(C([2H])([2H])[2H])C1=O (stereo not shown) [Compound 23] | < 30 |
| CCNc1nc(Nc2sc(C(=O)N3CCOCC3)nc2C)ncc1C(F)(F)F [Compound 24] | < 30 |
| CNc1nc(Nc2sc(C(C)(C)C(N)=O)nc2Cl)ncc1C(F)(F)F [Compound 25] | < 30 |
| CCNc1nc(Nc2sc(C(C)(C)C(N)=O)nc2C)ncc1C(F)(F)F [Compound 26] | < 30 |
| CCNc1nc(Nc2sc(C#N)nc2C)ncc1C(F)(F)F [Compound 27] | < 30 |
| CCNc1nc(Nc2sc(C(=O)NC)nc2C)ncc1C(F)(F)F [Compound 28] | < 30 |
| Cc1nc(C(C)(C)C(N)=O)sc1Nc1ncc(C(F)(F)F)c(NC2CC2)n1 [Compound 29] | < 30 |
| Cc1nc(C(C)(C)C(N)=O)sc1Nc1ncc(C(F)(F)F)c(C2CC2)n1 [Compound 30] | < 30 |
| Cc1nc(C(C)(C)c2nnn(C)n2)sc1Nc1ncc(C(F)(F)F)c(C2CC2)n1 [Compound 31] | < 30 |
| CCNc1nc(Nc2sc(C3(C#N)CC3)nc2C)ncc1C(F)(F)F [Compound 32] | < 30 |
| CCNc1nc(Nc2sc(C(=O)N3CC4CCC(C3)O4)nc2C)ncc1C(F)(F)F [Compound 33] | < 30 |
| CC(C)(C(N)=O)c1nc(Cl)c(Nc2ncc(C(F)(F)F)c(NC3CC3)n2)s1 [Compound 34] | < 30 |
| CNc1nc(Nc2sc(C(C)(C)C#N)nc2Cl)ncc1C(F)(F)F [Compound 36] | < 30 |
| CCNc1nc(Nc2sc(C(C)(C)C(N)=O)nc2Cl)ncc1C(F)(F)F [Compound 37] | < 30 |
| CCNc1nc(Nc2sc(C(C)(C)C(N)=O)nc2Cl)ncc1Br [Compound 38] | < 30 |
| COc1nc(Nc2sc(C(C)(C)C(N)=O)nc2Cl)ncc1Br [Compound 39] | < 30 |
| CC(C)(C(N)=O)c1nc(Cl)c(Nc2ncc(C(F)(F)F)c(NCC(F)F)n2)s1 [Compound 40] | < 30 |
| CC(C)(C(N)=O)c1nc(Cl)c(Nc2ncc(Br)c(NC3CC3)n2)s1 [Compound 41] | < 30 |
| CCNc1nc(Nc2sc(C(C)(C)C#N)nc2Cl)ncc1C(F)(F)F [Compound 50] | < 30 |
| CNc1nc(Nc2sc(C(C)(C)C#N)nc2C2CC2)ncc1C(F)(F)F [Compound 61] | < 30 |
